Among the data in US8329706B2, “Oxazolidinone derivatives” (Actelion Pharmaceuticals Ltd., priority 2009, dated 2012) are IC50 values, retold here.

One assay deals with T1, human orexin-1 receptor (Homo sapiens, UniProt O43613).
T1 construct: expressed in transfected cells; host or cells: CHO cells (G418 selection)
T1 sequence (O43613 1-425): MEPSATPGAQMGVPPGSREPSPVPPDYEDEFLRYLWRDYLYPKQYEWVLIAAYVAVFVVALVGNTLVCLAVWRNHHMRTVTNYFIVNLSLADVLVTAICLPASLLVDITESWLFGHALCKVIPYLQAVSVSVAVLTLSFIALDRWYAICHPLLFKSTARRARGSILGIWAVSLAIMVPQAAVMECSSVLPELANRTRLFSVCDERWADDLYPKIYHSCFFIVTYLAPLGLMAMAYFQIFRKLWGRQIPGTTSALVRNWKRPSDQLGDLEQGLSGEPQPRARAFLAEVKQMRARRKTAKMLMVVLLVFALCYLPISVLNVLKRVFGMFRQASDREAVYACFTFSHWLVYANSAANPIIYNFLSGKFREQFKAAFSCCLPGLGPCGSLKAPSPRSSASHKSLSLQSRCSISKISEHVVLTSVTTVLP
Description: FLIPR intracellular calcium assay, orexin receptor antagonistic activity (OX1). It counts as cell-based. Conditions: CHO cells expressing human orexin-1 receptor; agonist 3 nM orexin-A; normalized to on-plate reference; * geomean n = 5, *2 geomean n = 2. The method, then: (§1) The orexin receptor antagonistic activity of the compounds of formula (I) is determined in accordance with the following experimental method.
(§2) Chinese hamster ovary (CHO) cells expressing the human orexin-1 receptor and the human orexin-2 receptor, respectively, are grown in culture medium (Ham F-12 with L-Glutamine) containing 300 μg/ml G418, 100 U/ml penicillin, 100 μg/ml streptomycin and 10% heat inactivated fetal calf serum (FCS). The cells are seeded at 20′000 cells/well into 384-well black clear bottom sterile plates (Greiner). The seeded plates are incubated overnight at 37° C. in 5% CO2.
(§3) Human orexin-A as an agonist is prepared as 1 mM stock solution in MeOH:water (1:1), diluted in HBSS containing 0.1% bovine serum albumin (BSA), NaHCO3: 0.375 g/l and 20 mM HEPES for use in the assay at a final concentration of 3 nM.
(§4) Antagonists are prepared as 10 mM stock solution in DMSO, then diluted in 384-well plates using DMSO followed by a transfer of the dilutions into in HBSS containing 0.1% bovine serum albumin (BSA), NaHCO3: 0.375 g/l and 20 mM HEPES. On the day of the assay, 50 μl of staining buffer (HBSS containing 1% FCS, 20 mM HEPES, NaHCO3: 0.375 g/l, 5 mM probenecid (Sigma) and 3 μM of the fluorescent calcium indicator fluo-4 AM (1 mM stock solution in DMSO, containing 10% pluronic) is added to each well. The 384-well cell-plates are incubated for 50 min at 37° C. in 5% CO2 followed by equilibration at rt for 30-120 min before measurement.
(§5) Within the Fluorescent Imaging Plate Reader (FLIPR Tetra, Molecular Devices), antagonists are added to the plate in a volume of 10 μl/well, incubated for 10 min and finally 10 μl/well of agonist is added. Fluorescence is measured for each well at 1 second intervals, and the height of each fluorescence peak is compared to the height of the fluorescence peak induced by 3 nM orexin-A with vehicle in place of antagonist. For each antagonist, the IC50 value (the concentration of compound needed to inhibit 50% of the agonistic response) is determined and normalized using the obtained IC50 value of a on-plate reference compound. Optimized conditions were achieved by adjustment of pipetting speed and cell splitting regime. The calculated IC50 values of the compounds may fluctuate depending on the daily cellular assay performance. Fluctuations of this kind are known to those skilled in the art.
For orientation: Calcium assays in cells follow changes in intracellular calcium, usually with a dye or a luminescent sensor.

A further assay addresses T2, human orexin-2 receptor (Homo sapiens, UniProt O43614).
T2 construct: expressed in transfected cells; host or cells: CHO cells (G418 selection)
T2 sequence (O43614 1-444): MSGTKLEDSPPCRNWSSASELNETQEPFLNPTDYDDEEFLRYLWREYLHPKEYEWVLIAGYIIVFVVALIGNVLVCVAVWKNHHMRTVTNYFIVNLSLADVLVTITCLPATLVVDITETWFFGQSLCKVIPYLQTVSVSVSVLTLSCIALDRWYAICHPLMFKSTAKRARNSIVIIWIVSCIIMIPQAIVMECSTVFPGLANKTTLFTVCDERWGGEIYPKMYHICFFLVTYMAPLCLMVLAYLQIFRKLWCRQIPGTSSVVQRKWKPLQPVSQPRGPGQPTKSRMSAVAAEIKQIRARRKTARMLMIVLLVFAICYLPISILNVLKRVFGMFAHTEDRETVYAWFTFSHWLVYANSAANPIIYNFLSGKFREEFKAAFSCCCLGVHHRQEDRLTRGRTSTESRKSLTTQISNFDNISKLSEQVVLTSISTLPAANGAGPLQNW
The assay is described as follows: FLIPR intracellular calcium assay, orexin receptor antagonistic activity (OX2). It counts as cell-based. Particulars: CHO cells expressing human orexin-2 receptor; agonist 3 nM orexin-A; normalized to on-plate reference; * geomean n = 5, *2 geomean n = 2. As to the method:
as §1, §2, §3, §4, §5

The structures appear in SMILES notation. pIC50: −log10 of the molar value. Where only a bound is given, the exact number is not on record here.

As usually defined, the pIC50 is −log10 of the IC50, conventionally taken in molar units. In the case of `CCOc1ccccc1C1OCC(=O)N1Cc1ccc(C(F)(F)F)c(F)c1` (stereo not drawn) [Example 15, 2-(2-Ethoxy-phenyl)-3-(3-fluoro-4-trifluoromethyl-benzyl)-oxazolidin-4-one], the pIC50 at human orexin-1 receptor is below 5.00; on human orexin-2 receptor, 6.44.

Regarding `CCOc1ccccc1C1OCC(=O)N1Cc1c(F)ccc(F)c1Cl` (stereo not drawn) [Example 16, 3-(2-Chloro-3,6-difluoro-benzyl)-2-(2-ethoxy-phenyl)-oxazolidin-4-one], the pIC50 is 6.23 on human orexin-1 receptor and 5.42 at human orexin-2 receptor.

On to `CCOc1ccccc1C1OCC(=O)N1Cc1ccc(Cl)c(F)c1` (stereo not drawn) [Example 17, 3-(4-Chloro-3-fluoro-benzyl)-2-(2-ethoxy-phenyl)-oxazolidin-4-one], for which the pIC50 at human orexin-1 receptor was 5.03; on human orexin-2 receptor, 6.20.

For `CCOc1ccccc1C1OCC(=O)N1Cc1ccc(OC(F)(F)F)c(Cl)c1` (stereo not drawn) [Example 18, 3-(3-Chloro-4-trifluoromethoxy-benzyl)-2-(2-ethoxy-phenyl)-oxazolidin-4-one], the pIC50 is 5.06 at human orexin-1 receptor and 7.59 at human orexin-2 receptor.

Regarding `CCOc1ccccc1C1OCC(=O)N1Cc1ccc(Cl)cc1F` (stereo not drawn) [Example 19, 3-(4-Chloro-2-fluoro-benzyl)-2-(2-ethoxy-phenyl)-oxazolidin-4-one], the pIC50 at human orexin-1 receptor was 5.02; on human orexin-2 receptor, 6.23.

As for `CCOc1ccccc1C1OCC(=O)N1Cc1ccccc1F` (stereo not drawn) [Example 20, 2-(2-Ethoxy-phenyl)-3-(2-fluoro-benzyl)-oxazolidin-4-one], the pIC50 on human orexin-1 receptor is below 5.00; on human orexin-2 receptor, 6.58.

Turning to `CCOc1ccccc1C1OCC(=O)N1Cc1ccc(Cl)cc1` (stereo not drawn) [Example 21, 3-(4-Chloro-benzyl)-2-(2-ethoxy-phenyl)-oxazolidin-4-one], the pIC50 is below 5.00 on human orexin-1 receptor and 6.16 at human orexin-2 receptor.

Consider `CCOc1ccccc1C1OCC(=O)N1Cc1ccc(C(F)(F)F)cc1F` (stereo not drawn) [Example 22, 2-(2-Ethoxy-phenyl)-3-(2-fluoro-4-trifluoromethyl-benzyl)-oxazolidin-4-one], for which the pIC50 at human orexin-1 receptor was below 5.00; at human orexin-2 receptor, 6.08.

Turning to `CCOc1ccccc1C1OCC(=O)N1Cc1c(Cl)cccc1Cl` (stereo not drawn) [Example 23, 3-(2,6-Dichloro-benzyl)-2-(2-ethoxy-phenyl)-oxazolidin-4-one], the pIC50 at human orexin-1 receptor was 5.73; on human orexin-2 receptor it was 6.10.

Take `CCOc1ccccc1C1OCC(=O)N1Cc1cccc(C)c1` (stereo not drawn) [Example 24, 2-(2-Ethoxy-phenyl)-3-(3-methyl-benzyl)-oxazolidin-4-one]: the pIC50 is below 5.00 at human orexin-1 receptor and 6.44 at human orexin-2 receptor.

Regarding `CCOc1ccccc1C1OCC(=O)N1Cc1ccc(F)cc1` (stereo not drawn) [Example 25, 2-(2-Ethoxy-phenyl)-3-(4-fluoro-benzyl)-oxazolidin-4-one], the pIC50 is below 5.00 at human orexin-1 receptor and 6.70 on human orexin-2 receptor.

As to `CCOc1ccccc1C1OCC(=O)N1Cc1ccc(F)c(F)c1` (stereo not drawn) [Example 26, 3-(3,4-Difluoro-benzyl)-2-(2-ethoxy-phenyl)-oxazolidin-4-one], the values for the pIC50 on human orexin-1 receptor and on human orexin-2 receptor were below 5.00 and 6.19, respectively.

As to `CCOc1ccccc1C1OCC(=O)N1Cc1ccc(OC)cc1` (stereo not drawn) [Example 27, 2-(2-Ethoxy-phenyl)-3-(4-methoxy-benzyl)-oxazolidin-4-one], the pIC50 at human orexin-1 receptor is below 5.00; at human orexin-2 receptor it was 6.45.

`CCOc1ccccc1C1OCC(=O)N1Cc1cc(C)ccc1C(F)(F)F` (stereo not drawn) [Example 28, 2-(2-Ethoxy-phenyl)-3-(5-methyl-2-trifluoromethyl-benzyl)-oxazolidin-4-one]: the pIC50 is 5.10 on human orexin-1 receptor and 6.18 on human orexin-2 receptor.

In the case of `CCOc1ccccc1C1OCC(=O)N1Cc1ccc(Cl)c(Cl)c1` (stereo not drawn) [Example 29, 3-(3,4-Dichloro-benzyl)-2-(2-ethoxy-phenyl)-oxazolidin-4-one], the figures for the negative-log IC50 (pIC50) on human orexin-1 receptor and at human orexin-2 receptor were below 5.00 and 6.16, respectively.

As to `CCOc1ccccc1C1OCC(=O)N1Cc1ccc(Cl)cc1Cl` (stereo not drawn) [Example 30, 3-(2,4-Dichloro-benzyl)-2-(2-ethoxy-phenyl)-oxazolidin-4-one], the pIC50 on human orexin-1 receptor is 5.52; on human orexin-2 receptor, 6.07.

In the case of `CCOc1ccccc1C1OCC(=O)N1Cc1ccc(C)c(Cl)c1` (stereo not drawn) [Example 31, 3-(3-Chloro-4-methyl-benzyl)-2-(2-ethoxy-phenyl)-oxazolidin-4-one], the pIC50 on human orexin-1 receptor was 5.12; on human orexin-2 receptor, 6.20.

`COc1cccc(OC)c1C1OCC(=O)N1Cc1ccc(C(F)(F)F)cc1` (stereo not drawn) [Example 32, 2-(2,6-Dimethoxy-phenyl)-3-(4-trifluoromethyl-benzyl)-oxazolidin-4-one]: the pIC50 is below 5.00 at human orexin-1 receptor and 6.38 at human orexin-2 receptor.

Turning to `COc1cccc(OC)c1C1OCC(=O)N1Cc1ccccc1OC(F)(F)F` (stereo not drawn) [Example 33, 2-(2,6-Dimethoxy-phenyl)-3-(2-trifluoromethoxy-benzyl)-oxazolidin-4-one], the pIC50 on human orexin-1 receptor is below 5.00; at human orexin-2 receptor, 6.65.

In the case of `COc1cccc(OC)c1C1OCC(=O)N1Cc1ccc(OC(F)(F)F)cc1` (stereo not drawn) [Example 34, 2-(2,6-Dimethoxy-phenyl)-3-(4-trifluoromethoxy-benzyl)-oxazolidin-4-one], the pIC50 was 5.19 on human orexin-1 receptor and 6.53 at human orexin-2 receptor.

For the compound `COc1cccc(OC)c1C1OCC(=O)N1Cc1cccc(OC(F)(F)F)c1` (stereo not drawn) [Example 35, 2-(2,6-Dimethoxy-phenyl)-3-(3-trifluoromethoxy-benzyl)-oxazolidin-4-one], the pIC50 on human orexin-1 receptor is 5.54; on human orexin-2 receptor, 6.21.

With `COc1cccc(OC)c1C1OCC(=O)N1Cc1ccc(F)c(Cl)c1` (stereo not drawn) [Example 36, 3-(3-Chloro-4-fluoro-benzyl)-2-(2,6-dimethoxy-phenyl)-oxazolidin-4-one], the pIC50 at human orexin-1 receptor is 5.87; at human orexin-2 receptor, 6.20.

Consider `COc1cccc(OC)c1C1OCC(=O)N1Cc1cc(C(F)(F)F)cc(Cl)c1F` (stereo not drawn) [Example 37, 3-(3-Chloro-2-fluoro-5-trifluoromethyl-benzyl)-2-(2,6-dimethoxy-phenyl)-oxazolidin-4-one], for which the negative-log IC50 (pIC50) on human orexin-1 receptor was 6.79; on human orexin-2 receptor it was 6.32.

For the compound `COc1cccc(OC)c1C1OCC(=O)N1Cc1ccc(F)c(C(F)(F)F)c1` (stereo not drawn) [Example 38, 2-(2,6-Dimethoxy-phenyl)-3-(4-fluoro-3-trifluoromethyl-benzyl)-oxazolidin-4-one], the figures for the pIC50 at human orexin-1 receptor and on human orexin-2 receptor were 5.86 and 6.14, respectively.

On to `COc1cccc(OC)c1C1OCC(=O)N1Cc1ccc(Cl)c(F)c1` (stereo not drawn) [Example 39, 3-(4-Chloro-3-fluoro-benzyl)-2-(2,6-dimethoxy-phenyl)-oxazolidin-4-one], for which the pIC50 at human orexin-1 receptor is 5.39; at human orexin-2 receptor, 6.10.

Turning to `COc1cccc(OC)c1C1OCC(=O)N1Cc1ccc(OC(F)(F)F)c(Cl)c1` (stereo not drawn) [Example 40, 3-(3-Chloro-4-trifluoromethoxy-benzyl)-2-(2,6-dimethoxy-phenyl)-oxazolidin-4-one], the pIC50 on human orexin-1 receptor was 6.70; on human orexin-2 receptor, 7.54.

As to `COc1cccc(OC)c1C1OCC(=O)N1Cc1c(C)cc(C)cc1C` (stereo not drawn) [Example 41, 2-(2,6-Dimethoxy-phenyl)-3-(2,4,6-trimethyl-benzyl)-oxazolidin-4-one], the pIC50 was 6.27 at human orexin-1 receptor and 6.17 on human orexin-2 receptor.
